The record followed here is ChEMBL document CHEMBL1287766, “Discovery of N-benzyl-N'-(4-pipyridinyl)urea CCR5 antagonists as anti-HIV-1 agents (II): modification of the acyl portion” (Bioorg Med Chem Lett, 2010).

The test system of one data set is HOS. The data set is described as follows: Cytotoxicity against human HOS cells up to 1 uM. In kind it is cell-based.
Data set [1] concerns Human immunodeficiency virus 1. The data set is described as follows: Antiviral activity against HIV1 BaL in human HOS cells. The class given is functional, organism-based. Particulars: Human immunodeficiency virus 1, BaL; call rule not given here.
A short description of data set [2]: Oral bioavailability in Sprague-Dawley rat at 1 mg/kg. In kind it is ADME, organism-based. Particulars: in vivo.
The nature of data set [3]: Clearance in Sprague-Dawley rat at 1 mg/kg. The class given is ADME, organism-based. Further details: dose 1 mg/kg. Particulars: in vivo.
The subject of the next data set is PBL. The data set is described as follows: Cytotoxicity against human PBL cells up to 1 uM. In kind it is cell-based.
For data set [4], the system named is Human immunodeficiency virus 1. The data set is described as follows: Antiviral activity against HIV1 BaL in human PBL cells. Particulars: Human immunodeficiency virus 1, BaL. The class given is functional, organism-based.
Data set [5] is described as follows: Apparent permeability across MDCK cells at pH 7.05. In kind it is ADME, cell-based, Canis lupus familiaris. Particulars: dog.
A further data set deals with Cytochrome P450 3A4 (Homo sapiens, UniProt P08684). The data set can be described thus: Inhibition of CYP3A4. In kind it is ADME.
A short description of data set [6]: Half life in Sprague-Dawley rat at 1 mg/kg. The class given is ADME, organism-based. Further details: dose 1 mg/kg. As to conditions: in vivo.

The structures appear in SMILES notation. A value given as a limit tells only on which side of the number the result lay.

Chain of Cytochrome P450 3A4 (P08684 whole entry): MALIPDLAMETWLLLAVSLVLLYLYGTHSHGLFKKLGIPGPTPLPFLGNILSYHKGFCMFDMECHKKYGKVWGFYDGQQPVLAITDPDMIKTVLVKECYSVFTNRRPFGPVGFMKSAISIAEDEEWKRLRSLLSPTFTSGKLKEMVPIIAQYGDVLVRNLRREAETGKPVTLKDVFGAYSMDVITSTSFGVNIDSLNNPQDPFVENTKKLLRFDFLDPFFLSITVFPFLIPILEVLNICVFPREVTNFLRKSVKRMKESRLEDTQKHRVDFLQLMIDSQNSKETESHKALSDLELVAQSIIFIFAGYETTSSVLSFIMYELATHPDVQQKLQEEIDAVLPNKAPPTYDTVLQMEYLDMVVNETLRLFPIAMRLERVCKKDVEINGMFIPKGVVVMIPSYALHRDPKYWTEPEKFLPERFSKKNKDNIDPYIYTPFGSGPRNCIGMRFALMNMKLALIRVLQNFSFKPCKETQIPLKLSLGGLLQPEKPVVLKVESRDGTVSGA

Consider `N#Cc1ccc(CNC(=O)N(c2cccc(F)c2)C2CCN(CCC3(c4cccc(F)c4)CCN(C(=O)c4cc(S(=O)(=O)N5CCCC5)c(F)cc4Cl)CC3)CC2)cc1`, for which the Activity entry with HOS and in the data set on PBL was “Non-toxic” each time. Moreover, the results for the IC50 in data set [1] and in data set [4] were 1.5 nM and 0.6 nM, respectively. Further, the bioavailability (usually dose-corrected exposure relative to a reference, in per cent) in [2] is 9%. In addition, in data set [3], the clearance (usually the volume of plasma or blood freed of the substance per unit of time) was found to be 9.5 mL/min/kg.
As for `N#Cc1ccc(CNC(=O)N(c2cccc(F)c2)C2CCN(CCC3(c4cccc(F)c4)CCN(C(=O)c4c(F)ccc(S(N)(=O)=O)c4F)CC3)CC2)cc1`, the Activity result in the data set with HOS and with PBL was “Non-toxic” each time. Besides, the IC50 (as a rule, the concentration that gives 50% inhibition) in data set [1] turned out to be 6.6 nM; in [4], 2 nM. Further, in data set [3], the clearance came out at 25 mL/min/kg.
Take `N#Cc1ccc(CNC(=O)N(c2cccc(F)c2)C2CCN(CCC3(c4cccc(F)c4)CCN(C(=O)c4cc(S(N)(=O)=O)c(F)cc4F)CC3)CC2)cc1`: in data set [5], the Papp (as a rule, the rate of passage across a membrane or cell layer, normalised by area and donor concentration) is below 0.3 ×10⁻⁶ cm/s. In addition, the Activity entry in the data set on HOS and in the data set on PBL was “Non-toxic” in each case. For the same compound, the values for the half-inhibitory concentration (IC50) in [1] and in [4] were 4 nM and 5.2 nM, respectively. The compound further registered a clearance in data set [3] of 31 mL/min/kg.
In the case of `N#Cc1ccc(CNC(=O)N(c2cccc(F)c2)C2CCN(CCC3(c4cccc(F)c4)CCN(C(=O)c4nsnc4O)CC3)CC2)cc1`, the Activity result with HOS and in the data set with PBL was “Non-toxic” throughout. Besides, the IC50 in data set [1] was found to be 1.1 nM; in data set [4], 41 nM. The same compound came in with a bioavailability in data set [2] of 0%. Also, the “inhibition (INH)” value against Cytochrome P450 3A4 is listed as “Active”. For the same compound, the clearance in data set [3] was 124 mL/min/kg.
On to `CC(CO)(CO)C(=O)N1CCC(CCN2CCC(N(C(=O)NCc3ccc(C#N)cc3)c3cccc(F)c3)CC2)(c2cccc(F)c2)CC1`, for which the Activity result in the data set with HOS and with PBL was “Non-toxic” in each case. The half-life (usually the time in which the quantity being followed falls by half) in data set [6] is 4.4 h. For the same compound, in data set [1], the IC50 was found to be 22 nM. Moreover, the bioavailability in [2] stood at 7%. In data set [3], this compound had a clearance of 26 mL/min/kg.
In the case of `CC(C)(CO)C(=O)N1CCC(CCN2CCC(N(C(=O)NCc3ccc(C#N)cc3)c3cccc(F)c3)CC2)(c2cccc(F)c2)CC1`, the Activity entry with HOS and with PBL was “Non-toxic” in each case. The compound also gave a half-life in [6] of 2.6 h. Also, the IC50 in data set [1] amounted to 19 nM; in data set [4], 20 nM. The compound also yielded a bioavailability in [2] of 63%. Besides, the clearance in data set [3] stood at 22 mL/min/kg.
Regarding `CC(C)(C)C(=O)N1CCC(CCN2CCC(N(C(=O)NCc3ccc(C#N)cc3)c3cccc(F)c3)CC2)(c2cccc(F)c2)CC1`, the Activity result with HOS and in the data set on PBL was “Non-toxic” in each case. This compound also had a half-life in [6] of 2.4 h. Besides, the IC50 amounted to 11 nM in data set [1] and 5.3 nM in data set [4]. Moreover, in data set [2], the bioavailability is 11%. In data set [3], this compound gave a clearance of 10 mL/min/kg.
For `N#Cc1ccc(CNC(=O)N(c2cccc(F)c2)C2CCN(CCC3(c4cccc(F)c4)CCN(C(=O)c4c(Cl)cncc4Cl)CC3)CC2)cc1`, the Activity result in the data set on HOS and with PBL was “Non-toxic” throughout. In addition, the half-life in [6] was 4.9 h. Further, the IC50 amounted to 2.7 nM in [1] and 4.8 nM in [4]. The bioavailability in data set [2] stood at 50%. Further, on Cytochrome P450 3A4, the “inhibition (INH)” value is listed as “Active”. The clearance in data set [3] is 24 mL/min/kg.
As for `N#Cc1ccc(CNC(=O)N(c2cccc(F)c2)C2CCN(CCC3(c4cccc(F)c4)CCN(C(=O)C4CCOCC4)CC3)CC2)cc1`, the Activity result in the data set with HOS and in the data set with PBL was “Non-toxic” each time. Moreover, the half-life in data set [6] is 2.6 h. Further, the IC50 in data set [1] is 17 nM; in data set [4], 22 nM. Also, the bioavailability in data set [2] amounted to 11%. For the same compound, the clearance in [3] amounted to 25 mL/min/kg.
Consider `N#Cc1ccc(CNC(=O)N(c2cccc(F)c2)C2CCN(CCC3(c4cccc(F)c4)CCN(C(=O)c4c(Cl)ccc(S(N)(=O)=O)c4Cl)CC3)CC2)cc1`, for which, in [5], the Papp is below 0.3 ×10⁻⁶ cm/s. For the same compound, the Activity entry in the data set on HOS and in the data set with PBL was “Non-toxic” throughout. Moreover, the IC50 in [1] was 5.7 nM; in data set [4], 2.8 nM. For the same compound, the clearance in data set [3] worked out at 16 mL/min/kg.
For `N#Cc1ccc(CNC(=O)N(c2cccc(F)c2)C2CCN(CCC3(c4cccc(F)c4)CCN(C(=O)c4cc(S(=O)(=O)N5CC[C@H](O)C5)c(F)cc4Cl)CC3)CC2)cc1`, the Activity entry in the data set with HOS and in the data set on PBL was “Non-toxic” in each case. Further, the IC50 in data set [1] stood at 1.5 nM; in [4], 0.5 nM. In [2], this compound showed a bioavailability of 8%. Also, the clearance in [3] is 24 mL/min/kg.
Take `N#Cc1ccc(CNC(=O)N(c2cccc(F)c2)C2CCN(CCC3(c4cccc(F)c4)CCN(C(=O)c4cc(S(=O)(=O)N5CCCC5)c(F)cc4F)CC3)CC2)cc1`: the Activity result in the data set on HOS and with PBL was “Non-toxic” each time. In addition, the concentration for half-maximal inhibition (IC50) stood at 0.9 nM in data set [1] and 0.6 nM in data set [4]. The compound also came in with a bioavailability in data set [2] of 10%. Also, in data set [3], the clearance was found to be 29 mL/min/kg.
Take `CC(C)(C)NS(=O)(=O)c1ccc(Cl)c(C(=O)N2CCC(CCN3CCC(N(C(=O)NCc4ccc(C#N)cc4)c4cccc(F)c4)CC3)(c3cccc(F)c3)CC2)c1Cl`: the Activity entry in the data set on HOS and in the data set on PBL was “Non-toxic” in each case. Besides, the IC50 was 3 nM in data set [1] and 0.8 nM in data set [4]. The compound further gave a bioavailability in [2] of 10%. Also, in data set [3], the clearance was 9 mL/min/kg.
Regarding `N#Cc1ccc(CNC(=O)N(c2cccc(F)c2)C2CCN(CCC3(c4cccc(F)c4)CCN(C(=O)c4ccnc(Cl)c4)CC3)CC2)cc1`, the Activity entry in the data set on HOS and in the data set on PBL was “Non-toxic” throughout. Also, the half-life in data set [6] was 5.8 h. In addition, the half-inhibitory concentration (IC50) in data set [1] was 19 nM; in [4], 13 nM. The bioavailability in [2] stood at 64%. Besides, on Cytochrome P450 3A4, the “inhibition (INH)” value is on record as “Active”. Besides, in [3], the clearance is 14.6 mL/min/kg.
As to `N#Cc1ccc(CNC(=O)N(c2cccc(F)c2)C2CCN(CCC3(c4cccc(F)c4)CCN(C(=O)c4cccnc4F)CC3)CC2)cc1`, the Activity entry in the data set with HOS and with PBL was “Non-toxic” throughout. The same compound had a half-life in data set [6] of 3.4 h. Also, the figures for the half-inhibitory concentration (IC50) in data set [1] and in data set [4] were 6.4 nM and 6.1 nM, respectively. In data set [2], the bioavailability amounted to 60%. For the same compound, the “inhibition (INH)” value against Cytochrome P450 3A4 is “Active”. Besides, the clearance in data set [3] stood at 22.5 mL/min/kg.
For `Cn1cc(Cl)c(C(=O)N2CCC(CCN3CCC(N(C(=O)NCc4ccc(C#N)cc4)c4cccc(F)c4)CC3)(c3cccc(F)c3)CC2)n1`, the Activity entry with HOS and in the data set on PBL was “Non-toxic” in each case. Also, in [6], the half-life is 2.6 h. In addition, the IC50 in data set [1] is 17 nM; in data set [4], 22 nM. For the same compound, the bioavailability in [2] was 11%. Moreover, the “inhibition (INH)” value on Cytochrome P450 3A4 is “Active”. In [3], the clearance came out at 25 mL/min/kg.
As to `N#Cc1ccc(CNC(=O)N(c2cccc(F)c2)C2CCN(CCC3(c4cccc(F)c4)CCN(C(=O)c4cc(S(=O)(=O)N5CC[C@H](O)C5)c(F)cc4F)CC3)CC2)cc1`, the Activity result in the data set on HOS and with PBL was “Non-toxic” each time. Moreover, the IC50 in data set [1] is 1.3 nM. The bioavailability in data set [2] stood at 0%. In addition, in data set [3], the clearance was 43 mL/min/kg.
`N#Cc1ccc(CNC(=O)N(c2cccc(F)c2)C2CCN(CCC3(c4cccc(F)c4)CCN(C(=O)c4cn[nH]c4C(F)(F)F)CC3)CC2)cc1`: the Activity entry with HOS and with PBL was “Non-toxic” throughout. Further, the half-life in data set [6] is 7.2 h. In [1], it took 8.2 nM to reach half-maximal inhibition (IC50). The same compound came in with a bioavailability in data set [2] of 3%. The “inhibition (INH)” value against Cytochrome P450 3A4 is given as “Active”. The clearance in data set [3] came to 13 mL/min/kg.
Regarding `N#Cc1ccc(CNC(=O)N(c2cccc(F)c2)C2CCN(CCC3(c4cccc(F)c4)CCN(C(=O)c4cc(S(N)(=O)=O)c(F)cc4Cl)CC3)CC2)cc1`, the Papp in data set [5] is below 0.3 ×10⁻⁶ cm/s. In addition, the Activity entry with HOS and in the data set on PBL was “Non-toxic” each time. The values for the IC50 in data set [1] and in [4] were 6.8 nM and 0.9 nM, respectively. In [3], this compound came in with a clearance of 9.7 mL/min/kg.
Consider `CC(C)(C#N)C(=O)N1CCC(CCN2CCC(N(C(=O)NCc3ccc(C#N)cc3)c3cccc(F)c3)CC2)(c2cccc(F)c2)CC1`, for which the Activity result with HOS and in the data set on PBL was “Non-toxic” each time. Moreover, the half-life in data set [6] was 4.3 h. Further, the IC50 is 6.4 nM in data set [1] and 49 nM in data set [4]. The bioavailability in data set [2] worked out at 28%. This compound also displayed a clearance in [3] of 12 mL/min/kg.
